Assay results published in patent US9149038B2, “4-amino-6-(heterocyclic)picolinates and 6-amino-2-(heterocyclic)pyrimidine-4-carboxylates and their use as herbicides” (Dow AgroSciences LLC, priority 2013, dated 2015).
Where two headings read alike, the source gives them in different places.

Columns and labels:
[1] = test system: Key Grass and Sedge Weeds as well as Grass Crops; test: Post-Emergent Test II: postemergent herbicidal activity, visual rating after 14 d (Table 8); format: in vivo; conditions: post-emergence, 336 h; for pest or weed control at 35 g/ha: 35 g ai/ha; for pest or weed control at 70 g/ha: 70 g ai/ha; for pest or weed control at 140 g/ha: 140 g ai/ha
Summary of the method: (§1)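 Scoring is visual, 0-100, at 14 d after application, comparing treated with untreated plants. Application: overhead track spray at 187 L/ha onto seedlings at 1-2 true leaves, in surfactant/crop-oil carrier.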

[2] = test system: Key Broadleaf Weed and Crop Species; test: Post-Emergent Test II: postemergent herbicidal activity, visual rating after 14 d (Table 7); format: in vivo; conditions: post-emergence, 336 h; for pest or weed control at 35 g/ha: 35 g ai/ha; for pest or weed control at 70 g/ha: 70 g ai/ha; for pest or weed control at 140 g/ha: 140 g ai/ha
Summary of the method: as §1

[3] = barnyardgrass (Echinochloa crus-galli), read-out: Visual Growth Reduction (%) 14 Days After Application ECHCG
[4] = giant foxtail (Setaria faberi), read-out: Visual Growth Reduction (%) 14 Days After Application SETFA
[5] = maize, corn (Zea mays), read-out: Visual Growth Reduction (%) 14 Days After Application ZEAMX
[6] = rice (Oryza sativa), read-out: Visual Growth Reduction (%) 14 Days After Application ORYSA
[7] = wheat, spring (Triticum aestivum), read-out: Visual Growth Reduction (%) 14 Days After Application TRZAS
[8] = yellow nutsedge (Cyperus esculentus), read-out: Visual Growth Reduction (%) 14 Days After Application CYPES
[9] = lambsquarters (Chenopodium album), read-out: Visual Growth Reduction (%) 14 Days After Application CHEAL
[10] = oilseed rape, canola (Brassica napus), read-out: Visual Growth Reduction (%) 14 Days After Application BRSNN
[11] = redroot pigweed (Amaranthus retroflexus), read-out: Visual Growth Reduction (%) 14 Days After Application AMARE
[12] = sunflower (Helianthus annuus), read-out: Visual Growth Reduction (%) 14 Days After Application HELAN
[13] = velvetleaf (Abutilon theophrasti), read-out: Visual Growth Reduction (%) 14 Days After Application ABUTH
[14] = wild poinsettia (Euphorbia heterophylla), read-out: Visual Growth Reduction (%) 14 Days After Application EPHHL

Compound COC(=O)c1nc(-c2ccc3c(c2)OC(F)(F)O3)nc(N)c1OC [Compound 62] has a pest or weed control at 35 g/ha [1, 3] of 85 to 94%, a pest or weed control at 70 g/ha [1, 3] of 85 to 94% and a pest or weed control at 140 g/ha [1, 3] of 95 to 100%. For the same compound, the pest or weed control at 35 g/ha [1, 4] was 0 to 29%, the pest or weed control at 70 g/ha [1, 4] was 30 to 44% and the pest or weed control at 140 g/ha [1, 4] was 60 to 74%. The pest or weed control at 35 g/ha [1, 5] was 95 to 100%, the pest or weed control at 70 g/ha [1, 5] was 95 to 100% and the pest or weed control at 140 g/ha [1, 5] was 95 to 100%. For the same compound, the pest or weed control at 35 g/ha [1, 6] was 0 to 29%, the pest or weed control at 70 g/ha [1, 6] was 0 to 29% and the pest or weed control at 140 g/ha [1, 6] was 0 to 29%. It also gave a pest or weed control at 35 g/ha [1, 7] of 0 to 29%, a pest or weed control at 70 g/ha [1, 7] of 0 to 29% and a pest or weed control at 140 g/ha [1, 7] of 0 to 29%. It also gave a pest or weed control at 35 g/ha [1, 8] of 95 to 100%, a pest or weed control at 70 g/ha [1, 8] of 95 to 100% and a pest or weed control at 140 g/ha [1, 8] of 95 to 100%. It also gave a pest or weed control at 35 g/ha [2, 9] of 0 to 29%, a pest or weed control at 70 g/ha [2, 9] of 0 to 29% and a pest or weed control at 140 g/ha [2, 9] of 0 to 29%. It also gave a pest or weed control at 35 g/ha [2, 10] of 45 to 59%, a pest or weed control at 70 g/ha [2, 10] of 45 to 59% and a pest or weed control at 140 g/ha [2, 10] of 60 to 74%. For the same compound, the pest or weed control at 35 g/ha [2, 11] was 0 to 29%, the pest or weed control at 70 g/ha [2, 11] was 0 to 29% and the pest or weed control at 140 g/ha [2, 11] was 0 to 29%. For the same compound, the pest or weed control at 35 g/ha [2, 12] was 85 to 94%, the pest or weed control at 70 g/ha [2, 12] was 75 to 84% and the pest or weed control at 140 g/ha [2, 12] was 95 to 100%. It also gave a pest or weed control at 35 g/ha [2, 13] of 45 to 59%, a pest or weed control at 70 g/ha [2, 13] of 85 to 94% and a pest or weed control at 140 g/ha [2, 13] of 85 to 94%. It also gave a pest or weed control at 35 g/ha [2, 14] of 95 to 100%, a pest or weed control at 70 g/ha [2, 14] of 95 to 100% and a pest or weed control at 140 g/ha [2, 14] of 95 to 100%.
